# Test results as given in ChEMBL document CHEMBL4507265 (2021).
# Tests used:
# [1] = test system: Phosphatidylinositol 4,5-bisphosphate 3-kinase catalytic subunit alpha isoform (Homo sapiens), P42336 [E545A]; conditions: Compound concentration 1000.0 nM
# [2] = molecular target: Cyclin-dependent kinase-like 1 (Homo sapiens) (UniProt Q00532); conditions: Compound concentration 1000.0 nM
# [3] = molecular target: D(1B) dopamine receptor (Homo sapiens) (UniProt P21918); conditions: Compound concentration 10.0 uM
# Chain of D(1B) dopamine receptor (Homo sapiens) (P21918 whole entry): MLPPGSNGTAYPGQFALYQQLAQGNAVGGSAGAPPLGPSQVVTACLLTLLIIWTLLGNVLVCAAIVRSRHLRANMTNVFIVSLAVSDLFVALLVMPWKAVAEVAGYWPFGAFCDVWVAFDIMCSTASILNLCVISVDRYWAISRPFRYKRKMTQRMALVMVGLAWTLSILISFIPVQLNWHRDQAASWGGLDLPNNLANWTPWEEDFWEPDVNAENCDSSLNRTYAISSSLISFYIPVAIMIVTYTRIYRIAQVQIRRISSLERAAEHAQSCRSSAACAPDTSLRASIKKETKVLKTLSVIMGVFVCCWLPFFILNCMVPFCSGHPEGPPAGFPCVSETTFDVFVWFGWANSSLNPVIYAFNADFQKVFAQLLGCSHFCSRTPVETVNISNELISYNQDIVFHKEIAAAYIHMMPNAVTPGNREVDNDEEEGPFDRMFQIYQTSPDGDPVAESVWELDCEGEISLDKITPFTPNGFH
# [4] = molecular target: Activated CDC42 kinase 1 (Homo sapiens) (UniProt Q07912); conditions: Compound concentration 1000.0 nM
# [5] = molecular target: Sigma intracellular receptor 2 (Homo sapiens, UniProt Q5BJF2); test: GPCRScan assay: inhibition of Sigma 2; design: radioligand conc. used [nm] 5.0, parental cells HEKT
# Chain of Sigma intracellular receptor 2 (Q5BJF2 whole entry): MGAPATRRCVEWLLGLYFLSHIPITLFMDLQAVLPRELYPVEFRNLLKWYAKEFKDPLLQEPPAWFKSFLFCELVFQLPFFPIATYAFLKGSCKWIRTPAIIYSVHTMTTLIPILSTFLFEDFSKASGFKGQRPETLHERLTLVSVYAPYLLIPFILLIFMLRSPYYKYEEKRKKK
# [6] = molecular target: Aurora kinase A (Homo sapiens) (UniProt O14965); conditions: Compound concentration 1000.0 nM
# Chain of Aurora kinase A (Homo sapiens) (O14965 whole entry): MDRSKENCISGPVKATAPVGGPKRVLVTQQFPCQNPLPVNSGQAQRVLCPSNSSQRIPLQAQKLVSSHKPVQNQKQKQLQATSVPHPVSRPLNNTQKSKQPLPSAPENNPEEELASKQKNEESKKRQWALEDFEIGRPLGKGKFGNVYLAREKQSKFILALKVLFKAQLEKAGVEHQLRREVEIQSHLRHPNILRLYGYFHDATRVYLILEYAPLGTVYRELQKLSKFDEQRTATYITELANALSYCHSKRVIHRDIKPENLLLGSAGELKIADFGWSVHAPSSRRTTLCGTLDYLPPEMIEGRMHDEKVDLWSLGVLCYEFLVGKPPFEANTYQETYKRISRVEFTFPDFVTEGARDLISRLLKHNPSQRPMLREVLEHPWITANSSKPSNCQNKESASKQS
# [7] = molecular target: Homeodomain-interacting protein kinase 1 (Homo sapiens) (UniProt Q86Z02); conditions: Compound concentration 1000.0 nM
# [8] = molecular target: Casein kinase I isoform gamma-3 (Homo sapiens) (UniProt Q9Y6M4); conditions: Compound concentration 1000.0 nM
# [9] = molecular target: Ephrin type-B receptor 1 (Homo sapiens) (UniProt P54762); conditions: Compound concentration 1000.0 nM
# [10] = molecular target: Ephrin type-A receptor 7 (Homo sapiens) (UniProt Q15375); conditions: Compound concentration 1000.0 nM
# [11] = molecular target: MAP kinase-activated protein kinase 5 (Homo sapiens) (UniProt Q8IW41); conditions: Compound concentration 1000.0 nM
# [12] = molecular target: Dual specificity tyrosine-phosphorylation-regulated kinase 2 (Homo sapiens) (UniProt Q92630); conditions: Compound concentration 1000.0 nM
# [13] = molecular target: Serine/threonine-protein kinase Nek6 (Homo sapiens) (UniProt Q9HC98); conditions: Compound concentration 1000.0 nM
# [14] = molecular target: STE20-like serine/threonine-protein kinase (Homo sapiens) (UniProt Q9H2G2); conditions: Compound concentration 1000.0 nM
# Chain of STE20-like serine/threonine-protein kinase (Homo sapiens) (Q9H2G2 whole entry, looked up): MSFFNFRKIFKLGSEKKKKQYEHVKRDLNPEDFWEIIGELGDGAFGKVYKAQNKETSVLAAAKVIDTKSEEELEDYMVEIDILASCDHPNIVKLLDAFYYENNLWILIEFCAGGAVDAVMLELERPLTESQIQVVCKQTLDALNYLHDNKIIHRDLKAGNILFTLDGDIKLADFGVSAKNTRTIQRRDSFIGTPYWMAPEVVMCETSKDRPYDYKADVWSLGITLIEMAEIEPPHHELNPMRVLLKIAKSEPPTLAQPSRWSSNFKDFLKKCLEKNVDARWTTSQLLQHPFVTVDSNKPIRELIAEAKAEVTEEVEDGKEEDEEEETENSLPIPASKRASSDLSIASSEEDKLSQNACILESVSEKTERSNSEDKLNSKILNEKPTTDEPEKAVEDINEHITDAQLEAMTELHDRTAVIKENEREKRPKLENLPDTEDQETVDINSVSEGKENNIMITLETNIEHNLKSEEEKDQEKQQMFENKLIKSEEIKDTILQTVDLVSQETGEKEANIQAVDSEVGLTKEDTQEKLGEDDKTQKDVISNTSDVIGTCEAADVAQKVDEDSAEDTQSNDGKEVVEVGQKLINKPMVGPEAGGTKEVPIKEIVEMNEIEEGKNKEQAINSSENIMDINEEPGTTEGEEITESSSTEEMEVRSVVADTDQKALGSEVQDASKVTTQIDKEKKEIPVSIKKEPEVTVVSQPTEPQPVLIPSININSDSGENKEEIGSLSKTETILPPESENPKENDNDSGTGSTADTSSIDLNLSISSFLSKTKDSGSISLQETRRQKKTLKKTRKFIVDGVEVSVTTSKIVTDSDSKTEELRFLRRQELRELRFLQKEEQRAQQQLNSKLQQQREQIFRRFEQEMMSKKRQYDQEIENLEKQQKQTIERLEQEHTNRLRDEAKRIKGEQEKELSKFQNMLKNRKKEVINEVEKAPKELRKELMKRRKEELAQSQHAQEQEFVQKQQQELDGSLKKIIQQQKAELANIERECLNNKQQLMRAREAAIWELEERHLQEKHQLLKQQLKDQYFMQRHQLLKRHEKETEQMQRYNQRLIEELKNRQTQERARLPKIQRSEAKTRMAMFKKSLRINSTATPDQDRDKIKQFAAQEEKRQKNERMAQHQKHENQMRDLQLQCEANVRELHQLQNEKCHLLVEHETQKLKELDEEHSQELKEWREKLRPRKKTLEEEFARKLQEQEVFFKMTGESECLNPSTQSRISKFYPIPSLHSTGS
# [15] = molecular target: RAF proto-oncogene serine/threonine-protein kinase (Homo sapiens) (UniProt P04049); conditions: Compound concentration 1000.0 nM
# [16] = test system: Leucine-rich repeat serine/threonine-protein kinase 2 (Homo sapiens), Q5S007 [G2019S]; conditions: Compound concentration 1000.0 nM
# [17] = molecular target: Serine/threonine-protein kinase PLK1 (Homo sapiens) (UniProt P53350); conditions: Compound concentration 1000.0 nM
# [18] = molecular target: 5-hydroxytryptamine receptor 2C (Homo sapiens) (UniProt P28335); conditions: Compound concentration 10.0 uM
# [19] = molecular target: Serine/threonine-protein kinase pim-3 (Homo sapiens) (UniProt Q86V86); conditions: Compound concentration 1000.0 nM
# [20] = molecular target: Ribosomal protein S6 kinase alpha-4 (Homo sapiens) (UniProt O75676); conditions: Compound concentration 1000.0 nM
# [21] = test system: eIF-2-alpha kinase GCN2 (Homo sapiens), Q9P2K8 [S808G]; conditions: Compound concentration 1000.0 nM
# [22] = molecular target: Serine/threonine-protein kinase MARK1 (Homo sapiens) (UniProt Q9P0L2); conditions: Compound concentration 1000.0 nM
# [23] = molecular target: Tyrosine-protein kinase TXK (Homo sapiens) (UniProt P42681); conditions: Compound concentration 1000.0 nM
# [24] = test system: Epidermal growth factor receptor (Homo sapiens), P00533 [T790M]; conditions: Compound concentration 1000.0 nM
# [25] = molecular target: 5-hydroxytryptamine receptor 1D (Homo sapiens) (UniProt P28221); conditions: Compound concentration 10.0 uM
# Chain of 5-hydroxytryptamine receptor 1D (Homo sapiens) (P28221 whole entry): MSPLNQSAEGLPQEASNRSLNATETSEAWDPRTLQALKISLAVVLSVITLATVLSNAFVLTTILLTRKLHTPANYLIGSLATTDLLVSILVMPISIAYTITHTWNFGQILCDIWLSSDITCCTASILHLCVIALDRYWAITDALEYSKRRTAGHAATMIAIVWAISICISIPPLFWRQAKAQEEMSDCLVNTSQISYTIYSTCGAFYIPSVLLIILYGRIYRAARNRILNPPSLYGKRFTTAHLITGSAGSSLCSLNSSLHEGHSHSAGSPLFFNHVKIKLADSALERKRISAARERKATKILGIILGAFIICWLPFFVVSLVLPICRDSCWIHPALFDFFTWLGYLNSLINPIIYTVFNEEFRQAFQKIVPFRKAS
# [26] = molecular target: Myosin-IIIb (Homo sapiens) (UniProt Q8WXR4); conditions: Compound concentration 1000.0 nM
# [27] = molecular target: Rho-associated protein kinase 2 (Homo sapiens) (UniProt O75116); conditions: Compound concentration 1000.0 nM
# [28] = molecular target: Serine/threonine-protein kinase pim-1 (Homo sapiens) (UniProt P11309); conditions: Compound concentration 1000.0 nM
# [29] = molecular target: Vascular endothelial growth factor receptor 3 (Homo sapiens) (UniProt P35916); conditions: Compound concentration 1000.0 nM
# Chain of Vascular endothelial growth factor receptor 3 (Homo sapiens) (P35916 whole entry): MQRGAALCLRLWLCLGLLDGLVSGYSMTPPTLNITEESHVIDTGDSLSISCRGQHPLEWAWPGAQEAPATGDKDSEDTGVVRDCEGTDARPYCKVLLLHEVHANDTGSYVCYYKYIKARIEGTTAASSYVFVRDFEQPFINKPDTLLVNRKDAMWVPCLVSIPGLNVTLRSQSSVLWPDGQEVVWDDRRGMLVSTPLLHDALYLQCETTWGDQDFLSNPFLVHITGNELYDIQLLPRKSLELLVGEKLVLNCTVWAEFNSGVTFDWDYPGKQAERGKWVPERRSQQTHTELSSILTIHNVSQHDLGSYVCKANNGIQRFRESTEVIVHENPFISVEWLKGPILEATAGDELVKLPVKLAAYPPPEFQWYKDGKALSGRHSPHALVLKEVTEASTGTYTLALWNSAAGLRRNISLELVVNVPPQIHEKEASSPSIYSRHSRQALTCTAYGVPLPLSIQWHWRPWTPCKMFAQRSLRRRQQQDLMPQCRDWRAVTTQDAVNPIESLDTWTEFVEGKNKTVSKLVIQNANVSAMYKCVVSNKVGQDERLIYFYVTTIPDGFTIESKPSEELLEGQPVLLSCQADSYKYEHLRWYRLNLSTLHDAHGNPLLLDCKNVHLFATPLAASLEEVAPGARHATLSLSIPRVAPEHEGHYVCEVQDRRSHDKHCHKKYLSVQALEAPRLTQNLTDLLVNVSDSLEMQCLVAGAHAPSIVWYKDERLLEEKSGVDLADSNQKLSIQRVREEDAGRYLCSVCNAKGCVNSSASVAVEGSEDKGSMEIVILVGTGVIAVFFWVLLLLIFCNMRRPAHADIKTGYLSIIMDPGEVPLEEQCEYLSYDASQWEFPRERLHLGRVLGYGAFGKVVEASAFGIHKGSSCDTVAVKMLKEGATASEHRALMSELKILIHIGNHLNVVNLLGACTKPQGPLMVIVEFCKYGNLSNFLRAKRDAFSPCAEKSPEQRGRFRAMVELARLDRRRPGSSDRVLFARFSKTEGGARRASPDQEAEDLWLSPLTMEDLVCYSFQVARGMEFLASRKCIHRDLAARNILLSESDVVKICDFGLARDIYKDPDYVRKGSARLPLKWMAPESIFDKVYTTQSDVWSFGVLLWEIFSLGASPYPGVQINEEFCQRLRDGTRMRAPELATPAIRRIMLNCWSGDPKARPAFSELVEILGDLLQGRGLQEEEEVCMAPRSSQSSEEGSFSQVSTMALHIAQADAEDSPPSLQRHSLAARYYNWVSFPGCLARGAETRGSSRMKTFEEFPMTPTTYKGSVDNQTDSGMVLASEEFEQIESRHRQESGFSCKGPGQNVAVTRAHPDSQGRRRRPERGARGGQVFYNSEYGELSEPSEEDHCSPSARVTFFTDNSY
# [30] = molecular target: cGMP-dependent protein kinase 1 (Homo sapiens) (UniProt Q13976); conditions: Compound concentration 1000.0 nM
# [31] = molecular target: Mitogen-activated protein kinase kinase kinase 19 (Homo sapiens) (UniProt Q56UN5); conditions: Compound concentration 1000.0 nM
# [32] = molecular target: Phosphatidylinositol 5-phosphate 4-kinase type-2 gamma (Homo sapiens) (UniProt Q8TBX8); conditions: Compound concentration 1000.0 nM
# [33] = molecular target: SRSF protein kinase 2 (Homo sapiens) (UniProt P78362); conditions: Compound concentration 1000.0 nM
# Chain of SRSF protein kinase 2 (Homo sapiens) (P78362 whole entry, looked up): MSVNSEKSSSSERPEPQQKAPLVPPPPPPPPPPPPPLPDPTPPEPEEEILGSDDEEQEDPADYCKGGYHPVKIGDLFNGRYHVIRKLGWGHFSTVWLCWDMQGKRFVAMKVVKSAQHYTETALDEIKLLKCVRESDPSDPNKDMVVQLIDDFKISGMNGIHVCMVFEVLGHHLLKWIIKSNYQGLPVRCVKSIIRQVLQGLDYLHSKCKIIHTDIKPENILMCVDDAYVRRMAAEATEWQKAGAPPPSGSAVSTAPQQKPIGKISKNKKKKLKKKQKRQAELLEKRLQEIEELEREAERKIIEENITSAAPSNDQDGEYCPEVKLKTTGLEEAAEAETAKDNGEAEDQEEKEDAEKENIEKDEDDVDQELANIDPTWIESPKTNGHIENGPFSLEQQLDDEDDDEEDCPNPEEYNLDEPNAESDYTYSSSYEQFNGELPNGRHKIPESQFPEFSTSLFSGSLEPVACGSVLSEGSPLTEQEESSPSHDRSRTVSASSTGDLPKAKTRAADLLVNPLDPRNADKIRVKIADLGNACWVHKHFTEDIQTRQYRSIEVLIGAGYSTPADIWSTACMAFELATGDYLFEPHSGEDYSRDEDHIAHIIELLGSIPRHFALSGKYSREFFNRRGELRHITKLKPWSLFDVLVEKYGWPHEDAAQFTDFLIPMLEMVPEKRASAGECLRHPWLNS
# [34] = molecular target: Dual specificity mitogen-activated protein kinase kinase 3 (Homo sapiens) (UniProt P46734); conditions: Compound concentration 1000.0 nM
# [35] = molecular target: Angiopoietin-1 receptor (Homo sapiens) (UniProt Q02763); conditions: Compound concentration 1000.0 nM
# [36] = molecular target: STE20/SPS1-related proline-alanine-rich protein kinase (Homo sapiens) (UniProt Q9UEW8); conditions: Compound concentration 1000.0 nM
# [37] = molecular target: Transient receptor potential cation channel subfamily M member 6 (Homo sapiens) (UniProt Q9BX84); conditions: Compound concentration 1000.0 nM
# [38] = molecular target: Phosphorylase b kinase regulatory subunit alpha, liver isoform (Homo sapiens) (UniProt P46019); conditions: Compound concentration 1000.0 nM
# [39] = test system: Phosphatidylinositol 4,5-bisphosphate 3-kinase catalytic subunit alpha isoform (Homo sapiens), P42336 [H1047Y]; conditions: Compound concentration 1000.0 nM
# [40] = molecular target: Serine/threonine-protein kinase WNK1 (Homo sapiens) (UniProt Q9H4A3); conditions: Compound concentration 1000.0 nM
# [41] = molecular target: Dual specificity tyrosine-phosphorylation-regulated kinase 1B (Homo sapiens) (UniProt Q9Y463); conditions: Compound concentration 1000.0 nM
# [42] = molecular target: Serine/threonine-protein kinase 3 (Homo sapiens) (UniProt Q13188); conditions: Compound concentration 1000.0 nM
# [43] = molecular target: Serine/threonine-protein kinase MARK2 (Homo sapiens) (UniProt Q7KZI7); conditions: Compound concentration 1000.0 nM
# [44] = molecular target: Serine/threonine-protein kinase Nek7 (Homo sapiens) (UniProt Q8TDX7); conditions: Compound concentration 1000.0 nM
# Chain of Serine/threonine-protein kinase Nek7 (Homo sapiens) (Q8TDX7 whole entry, looked up): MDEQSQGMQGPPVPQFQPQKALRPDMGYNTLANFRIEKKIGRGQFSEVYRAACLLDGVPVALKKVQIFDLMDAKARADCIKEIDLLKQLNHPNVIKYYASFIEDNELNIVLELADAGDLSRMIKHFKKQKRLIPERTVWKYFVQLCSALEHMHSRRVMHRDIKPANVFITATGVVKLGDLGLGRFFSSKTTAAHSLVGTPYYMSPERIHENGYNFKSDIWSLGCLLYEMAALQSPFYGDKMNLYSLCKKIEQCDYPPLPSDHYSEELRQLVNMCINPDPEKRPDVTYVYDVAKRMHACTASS
# [45] = molecular target: Activin receptor type-2B (Homo sapiens) (UniProt Q13705); conditions: Compound concentration 1000.0 nM
smiles,measurement,setting,value
NS(=O)(=O)c1cc(NC(=O)C2(c3ccccc3Cl)CC2)ccc1Oc1cccc(Cl)c1 [BAY-207],residual activity,[1],82%
same,residual activity,[2],99%
same,inhibition,[3],20.8%
same,residual activity,[4],82%
same,Ki,[5]; read-out: Ki,1.94 µM
same,residual activity,[6],100%
same,residual activity,[7],91%
same,residual activity,[8],100%
same,residual activity,[9],78%
same,residual activity,[10],82%
same,residual activity,[11],89%
same,residual activity,[12],81%
same,residual activity,[13],81%
same,residual activity,[14],79%
same,residual activity,[15],81%
same,residual activity,[16],100%
same,residual activity,[17],92%
same,inhibition,[18],19.5%
same,residual activity,[19],88%
same,residual activity,[20],89%
same,residual activity,[21],76%
same,residual activity,[22],83%
same,residual activity,[23],90%
same,residual activity,[24],100%
same,inhibition,[25],6.75%
same,residual activity,[26],29%
same,residual activity,[27],100%
same,residual activity,[28],94%
same,residual activity,[29],67%
same,residual activity,[30],91%
same,residual activity,[31],70%
same,residual activity,[32],62%
same,residual activity,[33],100%
same,residual activity,[34],84%
same,residual activity,[35],69%
same,residual activity,[36],100%
same,residual activity,[37],95%
same,residual activity,[38],100%
same,residual activity,[39],76%
same,residual activity,[40],88%
same,residual activity,[41],86%
same,residual activity,[42],94%
same,residual activity,[43],100%
same,residual activity,[44],90%
same,residual activity,[45],90%
NS(=O)(=O)c1cc(NC(=O)Cc2ccccc2)ccc1Oc1cccc(Cl)c1 [BAY-1797],residual activity,[1],69%
same,residual activity,[2],98%
same,inhibition,[3],27.7%
same,residual activity,[4],79%
same,Ki,[5]; read-out: Ki,4.34 µM
same,Ki,[5]; read-out: pKi (converted),4.17 µM
same,residual activity,[6],69%
same,residual activity,[7],80%
same,residual activity,[8],74%
same,residual activity,[9],93%
same,residual activity,[10],92%
same,residual activity,[11],100%
same,residual activity,[12],100%
same,residual activity,[13],98%
same,residual activity,[14],66%
same,residual activity,[15],100%
same,residual activity,[16],100%
same,residual activity,[17],73%
same,inhibition,[18],55.4%
same,residual activity,[19],96%
same,residual activity,[20],90%
same,residual activity,[21],100%
same,residual activity,[22],100%
same,residual activity,[23],92%
same,residual activity,[24],100%
same,inhibition,[25],1.74%
same,residual activity,[26],100%
same,residual activity,[27],98%
same,residual activity,[28],89%
same,residual activity,[29],79%
same,residual activity,[30],100%
same,residual activity,[31],78%
same,residual activity,[32],100%
same,residual activity,[33],88%
same,residual activity,[34],83%
same,residual activity,[35],90%
same,residual activity,[36],86%
same,residual activity,[37],84%
same,residual activity,[38],100%
same,residual activity,[39],81%
same,residual activity,[40],89%
same,residual activity,[41],100%
same,residual activity,[42],78%
same,residual activity,[43],59%
same,residual activity,[44],86%
same,residual activity,[45],75%
